The values that follow are results of earlier work, collected in patent publication US20120046286A1, “Novel Compounds” (priority 2009, published 2012).

In data set [1] the test system is neutrophils.
Data set [2] has as its system neutrophils. As to conditions: treatment of neutrophils; Thelen et al. 1994.

For the compound `O=c1cc(N2CCOCC2)oc2c(-c3ccccc3)cccc12` [LY294002], the “effect on neutrophil migration and superoxide release” value in the data set with neutrophils [1] is “block neutrophil migration and superoxide release”.
Consider `COC[C@H]1OC(=O)c2coc3c2[C@@]1(C)C1=C(C3=O)[C@@H]2CCC(=O)[C@@]2(C)C[C@H]1OC(C)=O` [wortmannin], for which the “effect on fMLP-induced respiratory burst response” value with neutrophils [2] is “prevents the fMLP-induced respiratory burst response”. Further, the “effect on neutrophil migration and superoxide release” value in the data set with neutrophils [1] is “block neutrophil migration and superoxide release”.
